The IC50 is the midpoint of a concentration-inhibition curve.

The values below come from publication PMC11596155, “When Chirality Makes the Difference: The Case of Novel Enantiopure N-Heterocyclic Carbene–Gold and –Silver Complexes” (Molecules, 2024).

One assay deals with MCF-10A cells. The experiment in a line: MTT assay, cytotoxicity on normal mammary epithelial cells MCF-10A. The note with it: 72 h, normal cells, mean ± SD of three experiments. The format is cell-based, human. On the procedure:
(§1) All cell lines used for the reported studies were purchased from the American Type Culture Collection (ATCC, Manassas, VA, USA). Human breast cancer cells MCF-7 and MDA-MB-231 were maintained in Dulbecco’s Modified Eagle Medium/Nutrient Mixture F12 Ham (DMEM/F12) supplemented with 5% fetal bovine serum (FBS), 1% L-glutamine and 100 units/mL of penicillin/streptomycin. Human mammary epithelial cells MCF-10A were cultured in DMEM/F12 medium, supplemented with 5% horse serum (HS), 100 units/mL of penicillin/streptomycin, […], 0.02 µg/mL human epidermal growth factor (EGF), 10 µg/mL insulin and […] [34]. The murine macrophages RAW 264.7 were grown in Dulbecco’s Modified Eagle’s Medium (DMEM) high glucose (4.5 g/L), added with 10% fetal bovine serum (FBS), 1% L-glutamine and 100 units/mL of penicillin/streptomycin. Cells were maintained at 37 °C, in a humidified atmosphere containing 5% CO2.
(§2) Cell viability was determined using the 3-(4,5-dimethylthiazol-2-y1)-2,5-diphenyltetrazolium bromide assay (MTT, Sigma-Aldrich, Milan, Italy), as in [35]. Cells were treated for 72 h (anticancer activity) or 24 h (anti-inflammatory activity) at different concentrations and the IC50 values were obtained using GraphPad Prism 9 software (GraphPad Software, La Jolla, CA, USA).

Assay [1] has as its system Escherichia coli (ATCC 25922). The experiment in a line: MIC and MBC by broth dilution, E. coli. The format is cell-based. Particulars: for M.B.C. E. coli / M.I.C. E. coli / MIC: broth dilution, overnight 37 °C; for MIC: Escherichia coli, ATCC25922. An excerpt:
(§3) The bacterial strains used for MIC and MBC value determinations expressed as µg/mL by the broth dilution method, according to CLSI guidelines, were the following: Gram-negative: Escherichia coli (ATCC® 25922TM); Gram-positive: Staphylococcus aureus (ATCC® 23235TM). The MIC represents the lowest concentration of compound able to inhibit the visible microbial growth, expressed in μg/mL, whereas the MBC is the lowest concentration of a given compound that can completely kill the bacteria. Bacteria were grown overnight in LB medium (2%), diluted at a density of […] colony forming units (CFUs/mL), plated in the 96-well microplates to obtain a total inoculum load of ca. 10^5 cells/well and then treated with increasing concentrations of the tested complexes (1, 5, 10, 20, 50, 100, 200 μg/mL). Successively, after incubation at 37 °C overnight, the bacterial growth was monitored at a wavelength of 600 nm using a Multiskan spectrophotometer (Multiskan Ex Microplate model; Thermo Scientific, Nyon, Switzerland). MIC or MBC values were obtained by comparing cell density with a positive control (bacterial cells grown in LB medium were added with only the vehicle, DMSO). The results were representative of three independent experiments performed in triplicate and ampicillin (Sigma Aldrich A9393) was used as the control for strain sensitivity.
On the technique in general: Dilution methods test growth across graded concentrations, often in twofold steps.

For a further assay, the system named is MDA-MB-231 cells. Description: MTT assay, anticancer activity, MDA-MB-231. In kind it is cell-based, human. Particulars: for IC50: mean ± SD of three experiments. On the procedure: as §1, §2
(Tetrazolium assays rely on reduction of a dye to a coloured formazan, in cell work by metabolically active cells.)

The subject of another assay is MCF-7 cells. Description: MTT assay, anticancer activity, MCF-7. The format is cell-based, human. Particulars: mean ± SD of three experiments. On the procedure:
as §1, §2

Assay [2] has as its system Staphylococcus aureus (ATCC 23235). The experiment in a line: MIC and MBC by broth dilution, S. aureus. In kind it is cell-based. Particulars: for M.B.C. S. aureus / M.I.C. S. aureus / MIC: broth dilution, overnight 37 °C; for MIC: Staphylococcus aureus, ATCC23235, read-out: M.I.C. S. aureus.
Excerpt: as §3

The structures appear in SMILES notation.

For `CN1C=CN(C[C@H](O)c2ccccc2)[CH]1[AgH][I]` (stereo partly drawn) [(R)-AgL1, (1-((R)-2-hydroxy-2-phenylethyl)-3-methyl-2,3-dihydro-1H-imidazol-2-yl)silver(I) iodide], the figures for the IC50 in the assay on MCF-10A cells, with MDA-MB-231 cells (72 h) and with MCF-7 cells (72 h) were 54.8 ± 2.1 µM, 9.2 ± 0.5 µM and 14.5 ± 1.2 µM, respectively. The “M.B.C. E. coli” value in assay [1] is reported as over 100 µg/mL. For the same molecule, in assay [1], the “M.I.C. E. coli” value stood at 25 µg/mL. The “M.B.C. S. aureus” value in assay [2] is over 150 µg/mL. Also, the “M.I.C. S. aureus” value in assay [2] was 75 µg/mL.

`CN1C(Cl)=C(Cl)N(C[C@H](O)c2ccccc2)[CH]1[AgH][I]` (stereo partly drawn) [(R)-AgL2, (4,5-dichloro-1-((R)-2-hydroxy-2-phenylethyl)-3-methyl-2,3-dihydro-1H-imidazol-2-yl)silver(I) iodide] had an IC50 with MCF-10A cells of 69.2 ± 2.7 µM. In addition, in assay [1], the “M.B.C. E. coli” value is on record as over 100 µg/mL and the “M.I.C. E. coli” value amounted to 50 µg/mL. Moreover, half-maximal inhibition in the assay with MDA-MB-231 cells (72 h) (IC50) was put at 6.7 ± 0.7 µM. In addition, the midpoint of inhibition in the assay on MCF-7 cells (72 h), the IC50, lay at 18.4 ± 0.9 µM. In assay [2], the “M.B.C. S. aureus” value is over 150 µg/mL and the “M.I.C. S. aureus” value is reported as 75 µg/mL.

For the molecule `C[n+]1ccn(C[C@H](O)c2ccccc2)c1.[I-]` [(R)-P1, (R)-1-(2-hydroxy-2-phenylethyl)-3-methyl-1H-imidazol-3-ium iodide], the concentration for half-maximal inhibition (IC50) with MCF-10A cells (Homo sapiens, MCF-10A) is over 200 µM; with MDA-MB-231 cells (Homo sapiens, MDA-MB-231, 72 h) it was over 200 µM; in the assay on MCF-7 cells (Homo sapiens, MCF7, 72 h), over 200 µM. Also, the MIC in assay [1] amounted to 100 µg/mL; in assay [2], 75 µg/mL. For the same molecule, the “M.B.C. E. coli” value in assay [1] is given as over 200 µg/mL. Besides, the “M.B.C. S. aureus” value in assay [2] is reported as over 150 µg/mL.

Take `C[n+]1cn(C[C@H](O)c2ccccc2)c(Cl)c1Cl.[I-]` [(R)-P2, (R)-4,5-dichloro-1-(2-hydroxy-2-phenylethyl)-3-methyl-1H-imidazol-3-ium iodide]: the IC50 is over 200 µM with MCF-10A cells (Homo sapiens, MCF-10A); over 200 µM in the assay with MDA-MB-231 cells (Homo sapiens, MDA-MB-231, 72 h); over 200 µM with MCF-7 cells (Homo sapiens, MCF7, 72 h). The MIC in assay [1] and in assay [2] was 75 µg/mL each time. In addition, the “M.B.C. E. coli” value in assay [1] was over 200 µg/mL. Moreover, in assay [2], the “M.B.C. S. aureus” value is listed as over 150 µg/mL.

In the case of `CN1C=CN(C[C@@H](O)c2ccccc2)[CH]1[AgH][I]` (stereo partly drawn) [(S)-AgL1, (1-((S)-2-hydroxy-2-phenylethyl)-3-methyl-2,3-dihydro-1H-imidazol-2-yl)silver(I) iodide], the 50% inhibitory concentration (IC50) in the assay on MCF-10A cells was over 200 µM. Besides, in assay [1], the “M.B.C. E. coli” value was over 200 µg/mL and the “M.I.C. E. coli” value was 75 µg/mL. In the assay on MDA-MB-231 cells (72 h), this molecule came in with a half-inhibitory concentration (IC50) of over 200 µM. Besides, the IC50 in the assay with MCF-7 cells (72 h) is 69.8 ± 2.1 µM. Moreover, in assay [2], the “M.B.C. S. aureus” value is reported as over 100 µg/mL and the “M.I.C. S. aureus” value turned out to be 50 µg/mL.

In the assay on MCF-10A cells, `CN1C(Cl)=C(Cl)N(C[C@@H](O)c2ccccc2)[CH]1[AgH][I]` (stereo partly drawn) [(S)-AgL2, (4,5-dichloro-1-((S)-2-hydroxy-2-phenylethyl)-3-methyl-2,3-dihydro-1H-imidazol-2-yl)silver(I) iodide] returned a concentration for half-maximal inhibition (IC50) of over 200 µM. In addition, in assay [1], the “M.B.C. E. coli” value is reported as over 200 µg/mL and the “M.I.C. E. coli” value stood at 75 µg/mL. Besides, in the assay on MDA-MB-231 cells (72 h), the “effect on MDA-MB-231 viability (in words)” value was “inactive” and the IC50 is over 200 µM. The same molecule yielded an IC50 in the assay with MCF-7 cells (72 h) of 4 ± 0.5 µM. In assay [2], the “M.B.C. S. aureus” value is over 200 µg/mL and the “M.I.C. S. aureus” value worked out at 75 µg/mL.

Regarding `CN1C=CN(C[C@@H](O)c2ccccc2)[CH]1[Au-][Cl]` (stereo partly drawn) [(S)-AuL1, (1-((S)-2-hydroxy-2-phenylethyl)-3-methyl-2,3-dihydro-1H-imidazol-2-yl)gold(I) chloride], half-maximal inhibition in the assay with MCF-10A cells (IC50) required 64.5 ± 3.2 µM. Also, in assay [1], the “M.B.C. E. coli” value is reported as over 150 µg/mL and the “M.I.C. E. coli” value came to 75 µg/mL. Further, in the assay on MDA-MB-231 cells (72 h), the IC50 came out at 22.6 ± 0.4 µM. For the same molecule, the half-inhibitory concentration (IC50) with MCF-7 cells (72 h) was determined as 14.6 ± 1 µM. Besides, in assay [2], the “M.B.C. S. aureus” value is listed as over 150 µg/mL and the “M.I.C. S. aureus” value was determined as 75 µg/mL.

In the assay on MCF-10A cells, `CN1C(Cl)=C(Cl)N(C[C@@H](O)c2ccccc2)[CH]1[Au-][Cl]` (stereo partly drawn) [(S)-AuL2, (4,5-dichloro-1-((S)-2-hydroxy-2-phenylethyl)-3-methyl-2,3-dihydro-1H-imidazol-2-yl)gold(I) chloride] had an IC50 of 17.2 ± 1.6 µM. Besides, in assay [1], the “M.B.C. E. coli” value is reported as over 200 µg/mL and the “M.I.C. E. coli” value is listed as 100 µg/mL. In the assay with MDA-MB-231 cells (72 h), this molecule registered an IC50 of 11.5 ± 0.4 µM. Also, it took 10 ± 0.5 µM to reach half-maximal inhibition in the assay on MCF-7 cells (72 h) (IC50). Besides, in assay [2], the “M.B.C. S. aureus” value is over 100 µg/mL and the “M.I.C. S. aureus” value turned out to be 75 µg/mL.

Regarding `C[n+]1ccn(C[C@@H](O)c2ccccc2)c1.[I-]` [(S)-P1, (S)-1-(2-hydroxy-2-phenylethyl)-3-methyl-1H-imidazol-3-ium iodide], the half-maximal inhibitory concentration (IC50) with MCF-10A cells (Homo sapiens, MCF-10A) was over 200 µM; in the assay on MDA-MB-231 cells (Homo sapiens, MDA-MB-231, 72 h), over 200 µM; in the assay with MCF-7 cells (Homo sapiens, MCF7, 72 h), over 200 µM. The MIC amounted to 100 µg/mL in assay [1] and 75 µg/mL in assay [2]. For the same molecule, the “M.B.C. E. coli” value in assay [1] is listed as over 200 µg/mL. The “M.B.C. S. aureus” value in assay [2] is over 150 µg/mL.

For `C[n+]1cn(C[C@@H](O)c2ccccc2)c(Cl)c1Cl.[I-]` [(S)-P2, (S)-4,5-dichloro-1-(2-hydroxy-2-phenylethyl)-3-methyl-1H-imidazol-3-ium iodide], the half-inhibitory concentration (IC50) with MCF-10A cells (Homo sapiens, MCF-10A) was over 200 µM; in the assay with MDA-MB-231 cells (Homo sapiens, MDA-MB-231, 72 h) it was over 200 µM; in the assay on MCF-7 cells (Homo sapiens, MCF7, 72 h), over 200 µM. Besides, the MIC in assay [1] and in assay [2] was 75 µg/mL each time. For the same molecule, in assay [1], the “M.B.C. E. coli” value is given as over 150 µg/mL. Moreover, the “M.B.C. S. aureus” value in assay [2] is listed as over 200 µg/mL.

`CC1(C)S[C@@H]2[C@H](NC(=O)[C@H](N)c3ccccc3)C(=O)N2[C@H]1C(=O)O` [ampicillin, reference compound]: the “strain sensitivity E. coli (in words)” value in assay [1] (control for strain sensitivity) is listed as “sensitive”. In addition, the “strain sensitivity S. aureus (in words)” value in assay [2] (control for strain sensitivity) is given as “sensitive”.
